According to patent US20230338378A1, “Methods of Administering Myosin Inhibitors” (MYOKARDIA, INC., priority 2022, published 2023):

Key:
Plasma protein binding = format: in vitro ADME
CYP1A2 = CYP1A2 (Homo sapiens, UniProt P05177); assay: In vitro CYP inhibition; format: in vitro ADME; conditions: In Vitro Studies
CYP3A4 = CYP3A4 (Homo sapiens, UniProt P08684); assay: In vitro CYP inhibition; format: in vitro ADME; conditions: In Vitro Studies; clinically relevant concentrations
CYP2B6 = assay: In vitro CYP induction; format: in vitro ADME; conditions: In Vitro Studies
[1] = test system: organic cation transporters (OCTs); assay: In vitro transporter inhibition; format: in vitro ADME; conditions: In Vitro Studies
pregnant rabbits = assay: Embryo-fetal development study in pregnant rabbits; format: in vivo, rabbit
Procedure: Visceral findings consisted of malformations of the great vessels (dilatation of pulmonary trunk and/or aortic arch). Skeletal malformations consisted of higher incidences of fused sternebrae at ≥1.2 mg/kg/day. Plasma exposure (AUC) at the no-effect dose for embryo-fetal development in rabbits is 0.4 times the exposure in humans at the MRHD.

pregnant rats = assay: Pre/postnatal development study in rats; format: in vivo, rat
Procedure: In a pre/postnatal development study, mavacamten was administered orally to pregnant rats (0.3, to 1.5 mg/kg/day) from gestation Day 6 to lactation/post-partum Day 20.

lymphocyte = assay: Human in vitro lymphocyte clastogenicity assay; format: cell-based
rasH2 transgenic mouse = assay: 6-month rasH2 transgenic mouse carcinogenicity study; format: in vivo
healthy subjects = assay: Doses of up to 25 mg for up to 25 days in healthy subjects; format: in vivo; conditions: 25 mg dose level for up to 25 days
Procedure: Human experience of overdose with MAVACAMTEN is limited. MAVACAMTEN has been given as a single dose of up to 144 mg in patients with HCM. […] In healthy subjects, doses of up to 25 mg have been administered for up to 25 days, with 3 of 8 participants treated at the 25 mg dose level experiencing 20% or greater reductions in LVEF. An infant death was reported after accidental ingestion of three 15 mg capsules.

healthy volunteers = assay: Cardiac electrophysiology (QTc) in healthy volunteers; format: in vivo, human
Description: The mechanism of the QT prolongation effect is not known.

CYP2C19 = CYP2C19 (Homo sapiens, UniProt P33261); assay: Concomitant use with weak CYP2C19 inhibitor omeprazole; format: in vivo; parameters: Mavacamten is hepatically metabolized predominantly via CYP2C19 (74%), CYP3A4 (18%) and CYP2C9 (8%); from tissue; host or cells: liver of human subjects in vivo, or a Simcyp virtual population; conditions: mavacamten 15 mg with omeprazole 20 mg once daily; healthy CYP2C19 NMs and RMs
Sequence of CYP2C19 (P33261 whole entry): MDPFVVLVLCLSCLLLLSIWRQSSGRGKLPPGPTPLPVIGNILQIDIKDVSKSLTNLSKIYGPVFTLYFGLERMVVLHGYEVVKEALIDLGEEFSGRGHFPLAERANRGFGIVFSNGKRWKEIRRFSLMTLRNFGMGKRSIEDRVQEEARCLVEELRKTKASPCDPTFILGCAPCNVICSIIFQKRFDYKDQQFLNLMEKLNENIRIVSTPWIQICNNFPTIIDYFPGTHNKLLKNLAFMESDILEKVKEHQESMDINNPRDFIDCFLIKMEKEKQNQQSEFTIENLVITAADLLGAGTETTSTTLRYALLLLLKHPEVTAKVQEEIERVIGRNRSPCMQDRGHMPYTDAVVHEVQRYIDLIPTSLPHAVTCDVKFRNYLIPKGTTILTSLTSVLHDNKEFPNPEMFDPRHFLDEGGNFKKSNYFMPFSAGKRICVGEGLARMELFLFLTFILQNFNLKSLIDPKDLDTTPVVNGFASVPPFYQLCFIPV

Sequence of CYP1A2 (P05177 whole entry): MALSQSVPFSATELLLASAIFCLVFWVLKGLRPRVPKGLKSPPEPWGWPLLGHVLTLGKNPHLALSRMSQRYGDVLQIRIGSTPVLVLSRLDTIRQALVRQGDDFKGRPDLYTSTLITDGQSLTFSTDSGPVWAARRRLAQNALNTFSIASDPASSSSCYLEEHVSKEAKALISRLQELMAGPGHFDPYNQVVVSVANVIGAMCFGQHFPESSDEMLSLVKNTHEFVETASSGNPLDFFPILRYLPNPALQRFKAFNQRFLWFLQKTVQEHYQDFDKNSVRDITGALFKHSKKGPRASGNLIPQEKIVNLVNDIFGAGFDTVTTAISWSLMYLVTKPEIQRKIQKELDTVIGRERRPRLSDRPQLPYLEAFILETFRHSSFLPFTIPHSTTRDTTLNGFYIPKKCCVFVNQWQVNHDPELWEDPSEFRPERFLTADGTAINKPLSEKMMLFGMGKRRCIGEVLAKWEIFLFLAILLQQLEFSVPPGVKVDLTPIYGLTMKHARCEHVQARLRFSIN
Sequence of CYP3A4 (P08684 whole entry): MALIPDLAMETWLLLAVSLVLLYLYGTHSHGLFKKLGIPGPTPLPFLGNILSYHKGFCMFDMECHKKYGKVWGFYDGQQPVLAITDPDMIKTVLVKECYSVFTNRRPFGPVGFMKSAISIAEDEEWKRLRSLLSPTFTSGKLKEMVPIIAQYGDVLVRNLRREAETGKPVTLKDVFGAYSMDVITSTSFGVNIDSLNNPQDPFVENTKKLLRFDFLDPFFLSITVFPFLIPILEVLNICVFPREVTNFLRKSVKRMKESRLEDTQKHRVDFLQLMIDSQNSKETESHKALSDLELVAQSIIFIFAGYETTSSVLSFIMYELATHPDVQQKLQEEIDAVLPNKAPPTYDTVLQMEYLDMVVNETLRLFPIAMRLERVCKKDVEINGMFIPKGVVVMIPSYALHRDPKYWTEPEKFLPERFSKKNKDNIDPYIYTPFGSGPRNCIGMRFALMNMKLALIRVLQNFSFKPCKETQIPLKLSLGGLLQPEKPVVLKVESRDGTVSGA

CC(C)n1c(=O)cc(N[C@@H](C)c2ccccc2)[nH]c1=O [mavacamten, (S)-3-Isopropyl-6-((1-phenylethyl)amino)pyrimidine-2,4(1H,3H)-dione]
fraction unbound (Plasma protein binding): 0.02 to 0.03
inhibition of CYP1A2 (CYP1A2): does not inhibit
inhibition of CYP3A4 (CYP3A4): not an inhibitor
induction of CYP2B6 (CYP2B6): inducer
inhibition of OCTs [1]: does not inhibit
embryo-fetal findings (pregnant rabbits; pregnant rabbits, oral, period of organogenesis, doses of 1.2 mg/kg/day and higher): fetal malformations (visceral and skeletal) were increased
Plasma exposure (AUC) at the no-effect dose for embryo-fetal development vs exposure in humans at the MRHD (pregnant rabbits; rabbits): 0.4 times
no-observed-adverse-effect level (NOAEL) (pregnant rats; pre/postnatal development study, rats, highest dosage level tested): 1.5 mg/kg/day
effects in dams or offspring (pregnant rats; pregnant rats, oral 0.3 to 1.5 mg/kg/day, gestation Day 6 to lactation/post-partum Day 20): No adverse effects were observed
genotoxicity (lymphocyte): not genotoxic
carcinogenicity (rasH2 transgenic mouse; 6-month rasH2 transgenic mouse, up to 2.0 mg/kg/day in males and 3.0 mg/kg/day in females): no evidence of carcinogenicity
exposure (AUC) compared to AUC exposures in humans at the MRHD (rasH2 transgenic mouse; females, 3.0 mg/kg/day): 3 fold
exposure (AUC) compared to AUC exposures in humans at the MRHD (rasH2 transgenic mouse; males, 2.0 mg/kg/day): 1.8 fold
participants experiencing 20% or greater reductions in LVEF (healthy subjects): 3 of 8
QTc interval (healthy volunteers; healthy volunteers, multiple doses up to 25 mg once daily): concentration-dependent increase in the QTc interval
QTc interval (healthy volunteers; similar exposures during single-dose studies): No acute QTc changes
effect on mavacamten Cmax (CYP2C19): no effect
mavacamten AUCinf increase (CYP2C19): 48%
